Values of other authors in patent US20040180832A1, “Sustained peptide-release formulation” (Peptech Limited, priority 1996, published 2004).

Tested on: advanced prostatic cancer
Conditions: monthly subcutaneous injections

In the case of `CC(C)C[C@H](NC(=O)[C@@H](COC(C)(C)C)NC(=O)[C@H](Cc1ccc(O)cc1)NC(=O)[C@H](CO)NC(=O)[C@H](Cc1c[nH]c2ccccc12)NC(=O)[C@H](Cc1cnc[nH]1)NC(=O)[C@@H]1CCC(=O)N1)C(=O)N[C@@H](CCCNC(=N)N)C(=O)N1CCC[C@H]1C(=O)NNC(N)=O` [goserelin, 3-[5-oxo-L-prolyl-L-tryptophyl-L-seryl-L-tyrosyl-(3-O-tert-butyl)-D-seryl-L-leucyl-L-arginyl-L-prolyl] cabazamide acetate.], the “efficacy in advanced prostatic cancer compared with orchiectomy” value is listed as “as effective as orchiectomy” and the tolerability is listed as “well tolerated”.
